This note sets out measurements from US5962480A, “Drug for ameliorating brain diseases” (Wakunaga Pharmaceutical Co., Ltd., priority 1995, dated 1999).

Where a name gives a salt, the structure may show the parent alone.

The subject of one experiment is hippocampus neurons. The experiment in a line: inhibition of reduction in survival rate of neurons, hippocampus (number of surviving cells). The class given is cell-based, rat. Conditions: for viability at 10 µg/mL / viability at 1 µg/mL / viability at 0.1 µg/mL / viability at 0.01 µg/mL / viability at 0.001 µg/mL: Rattus norvegicus, Neuron, 72 h, control 100%, read-out: Inhibitory effect against reduction in survival rate of neurons (survival rate class); for viability at 10 µg/mL: 10^-5 g/ml; for viability at 1 µg/mL: 10^-6 g/ml; for viability at 0.1 µg/mL: 10^-7 g/ml; for viability at 0.01 µg/mL: 10^-8 g/ml; for viability at 0.001 µg/mL: 10^-9 g/ml; for inhibitory effect against reduction in survival rate of neurons (in words): hippocampus cells, Example 2. How it is done:
From a rat at the 18th day of pregnancy (having an 18 -day old embryo) the uterus was aseptically removed under etherification, and the fetus was obtained. The whole brain was collected from the fetus. From the brain placed in an L-15 medium were removed under a microscope the hippocampus, striate body, septum, cerebral cortex, and cerebellum. They were respectively minced with a knife. The minced tissue was treated by the addition of trypsin (0.25%) and DNase (0.01%) for 30 minutes at 37° C. to thereby isolate cells. The thus-isolated cells were suspended in Eagle's MEM medium supplemented with 10% fetal calf serum, and inoculated at a concentration of 4×10^4 cells/cm^2 into wells of a 48-well plate which had been coated with poly-L-lysin in advance. Following incubation for 24 hours, the medium was replaced by a serum-free DMEM/F-12 medium containing the drug. After three-days' additional incubation (six days for the striate body), the cells were fixed, stained, and the number of surviving cells in each well was counted. Compounds (2) through (14) were tested analogously to Example 1 using hippocampus cells prepared in a manner similar to Example 1. As structural comparative compounds, the following compounds were used: 4H-pyran-4-one (hereinafter referred as Compound (15) and 3-methoxy-6 -hydroxymethyl-4H-pyran-4-one (hereinafter referred to as Compound (16)).

The test system of experiment [1] is hippocampus cells (neurites). Put plainly: branching promotion effect on neurites. The class given is cell-based, rat. Conditions: one and two days after addition of the drug. How it is done:
The hippocampus cells obtained in a manner similar to that in Example 1 were incubated for 24 hours in a medium containing fetal calf serum, then for a further 24 hours in a serum-free medium. Subsequently, the drug was added. When one day and two days elapsed after addition of the drug, photographs were taken of the same cells. The number of branches from the longest neurite was counted.

Regarding `Cc1cc(=O)c(O)co1` [Compound (2), 3-Hydroxy-6-methyl-4H-pyran-4-one], in the experiment with hippocampus neurons, the viability at 10 µg/mL was in the range of 130 to 150%, the viability at 1 µg/mL lay within 110 to 130%, the viability at 0.1 µg/mL was in the range of 90 to 110% and the viability at 0.01 µg/mL lay in the range of 90 to 110%. Moreover, the viability at 0.001 µg/mL with hippocampus neurons lay within 90 to 110%.
Regarding `Cc1cc(=O)c(O)c(C)o1` [Compound (3), 3-Hydroxy-2,6-dimethyl-4H-pyran-4-one], in the experiment on hippocampus neurons, the viability at 10 µg/mL is 110 to 130%, the viability at 1 µg/mL was 130 to 150%, the viability at 0.1 µg/mL lay within 130 to 150% and the viability at 0.01 µg/mL is 110 to 130%. Besides, the viability at 0.001 µg/mL in the experiment with hippocampus neurons was 90 to 110%. The “branching promotion effect on neurites (in words)” value in experiment [1] was “confirmed to have a branching promotion effect on neurites”.
Take `CCCc1oc(C)cc(=O)c1O` [Compound (4), 3-Hydroxy-6-methyl-2-propyl-4H-pyran-4-one]: in the experiment with hippocampus neurons, the viability at 1 µg/mL is 90 to 110%, the viability at 0.1 µg/mL fell in the range of 110 to 130%, the viability at 0.01 µg/mL is 90 to 110% and the viability at 0.001 µg/mL was 90 to 110%.
`CCCCCc1oc(C)cc(=O)c1O` [Compound (5), 3-Hydroxy-6-methyl-2-pentyl-4H-pyran-4-one]: in the experiment with hippocampus neurons, the viability at 1 µg/mL was at most 90%, the viability at 0.1 µg/mL lay in the range of 110 to 130%, the viability at 0.01 µg/mL fell in the range of 90 to 110% and the viability at 0.001 µg/mL is 90 to 110%.
On to `Cc1cc(=O)c(O)c(CO)o1` [Compound (6), 3-Hydroxy-6-methyl-2-hydroxymethyl-4H-pyran-4-one], for which, in the experiment on hippocampus neurons, the viability at 10 µg/mL lay in the range of 110 to 130%, the viability at 1 µg/mL was 110 to 130%, the viability at 0.1 µg/mL was 110 to 130% and the viability at 0.01 µg/mL lay within 90 to 110%. Moreover, the viability at 0.001 µg/mL in the experiment on hippocampus neurons lay in the range of 90 to 110%.
Regarding `Cc1cc(=O)c(O)c(CN(C)C)o1` [Compound (7), 3-Hydroxy-6-methyl-2-dimethylaminomethyl-4H-pyran-4-one-HCl], in the experiment on hippocampus neurons, the viability at 10 µg/mL was in the range of 110 to 130%, the viability at 1 µg/mL was in the range of 110 to 130%, the viability at 0.1 µg/mL lay within 90 to 110% and the viability at 0.01 µg/mL fell in the range of 90 to 110%. Moreover, the viability at 0.001 µg/mL in the experiment on hippocampus neurons was 90 to 110%.
As for `O=c1cc(CO)occ1O` [Compound (8), 3-Hydroxy-6-hydroxymethyl-4H-pyran-4-one], in the experiment on hippocampus neurons, the viability at 10 µg/mL was in the range of 110 to 130%, the viability at 1 µg/mL was in the range of 110 to 130%, the viability at 0.1 µg/mL lay within 90 to 110% and the viability at 0.01 µg/mL was 90 to 110%. Also, the viability at 0.001 µg/mL in the experiment on hippocampus neurons was 90 to 110%.
Consider `CCCCCc1oc(CO)cc(=O)c1O` [Compound (9), 3-Hydroxy-6-hydroxymethyl-2-pentyl-4H-pyran-4-one], for which, in the experiment with hippocampus neurons, the viability at 10 µg/mL was in the range of 110 to 130%, the viability at 1 µg/mL fell in the range of 90 to 110%, the viability at 0.1 µg/mL is 90 to 110% and the viability at 0.01 µg/mL was in the range of 90 to 110%. Besides, the viability at 0.001 µg/mL in the experiment on hippocampus neurons fell in the range of 90 to 110%.
On to `CCCCC(O)c1oc(CO)cc(=O)c1O` (stereo not drawn) [Compound (10), 3-Hydroxy-6-hydroxymethyl-2-(1'-hydroxypentyl)-4H-pyran-4-one], for which, in the experiment with hippocampus neurons, the viability at 10 µg/mL was in the range of 130 to 150%, the viability at 1 µg/mL lay within 110 to 130%, the viability at 0.1 µg/mL lay in the range of 90 to 110% and the viability at 0.01 µg/mL was in the range of 90 to 110%. In addition, the viability at 0.001 µg/mL in the experiment on hippocampus neurons was 90 to 110%.
As for `CCCCCc1oc(C)c(O)c(=O)c1O` [Compound (11), 3,5-Dihydroxy-6-methyl-2-pentyl-4H-pyran-4-one], in the experiment with hippocampus neurons, the viability at 1 µg/mL is at most 90%, the viability at 0.1 µg/mL lay within 130 to 150%, the viability at 0.01 µg/mL is 90 to 110% and the viability at 0.001 µg/mL was 90 to 110%.
As for `O=c1cc(C=Cc2ccccc2)occ1O` [Compound (12), 3-Hydroxy-6-styryl-4H-pyran-4-one], in the experiment with hippocampus neurons, the viability at 10 µg/mL is at most 90%, the viability at 1 µg/mL lay in the range of 110 to 130%, the viability at 0.1 µg/mL is 110 to 130% and the viability at 0.01 µg/mL was in the range of 90 to 110%. In the experiment with hippocampus neurons, the viability at 0.001 µg/mL lay in the range of 90 to 110%.
On to `CC1=CC(=O)C(O)C=N1` (stereo not drawn) [Compound (13), 3-Hydroxy-6-methyl-4-pyridone], for which, in the experiment on hippocampus neurons, the viability at 10 µg/mL fell in the range of 130 to 150%, the viability at 1 µg/mL fell in the range of 110 to 130%, the viability at 0.1 µg/mL was in the range of 90 to 110% and the viability at 0.01 µg/mL lay in the range of 90 to 110%. In addition, in the experiment on hippocampus neurons, the viability at 0.001 µg/mL was 90 to 110%.
As to `O=C1C=C(CO)N=CC1O` (stereo not drawn) [Compound (14), 3-Hydroxy-6-hydroxymethyl-4-pyridone], in the experiment with hippocampus neurons, the viability at 10 µg/mL fell in the range of 110 to 130%, the viability at 1 µg/mL was 90 to 110%, the viability at 0.1 µg/mL lay in the range of 90 to 110% and the viability at 0.01 µg/mL was in the range of 90 to 110%. Further, in the experiment with hippocampus neurons, the viability at 0.001 µg/mL was in the range of 90 to 110%.
Turning to `O=c1ccocc1` [Compound (15), 4H-pyran-4-one, reference compound], in the experiment on hippocampus neurons, the viability at 10 µg/mL lay in the range of 90 to 110%, the viability at 1 µg/mL was 90 to 110%, the viability at 0.1 µg/mL was in the range of 90 to 110% and the viability at 0.01 µg/mL lay within 90 to 110%. Moreover, in the experiment on hippocampus neurons, the viability at 0.001 µg/mL is 90 to 110% and the “inhibitory effect against reduction in survival rate of neurons (in words)” value is listed as “no inhibitory effect”.
Take `COc1coc(CO)cc1=O` [Compound (16), 3-methoxy-6-hydroxymethyl-4H-pyran-4-one, reference compound]: in the experiment with hippocampus neurons, the viability at 10 µg/mL lay within 90 to 110%, the viability at 1 µg/mL was in the range of 90 to 110%, the viability at 0.1 µg/mL is 90 to 110% and the viability at 0.01 µg/mL lay within 90 to 110%. For the same molecule, in the experiment with hippocampus neurons, the viability at 0.001 µg/mL was in the range of 90 to 110% and the “inhibitory effect against reduction in survival rate of neurons (in words)” value was “no inhibitory effect”.
